Source: ChEMBL document CHEMBL1201861, “Genomics of Drug Sensitity in Cancer screening data, Wellcome Trust Sanger Institute”

Legend:
Test in all cases: cells
COR-L88 = type: functional, cell-based, Homo sapiens; conditions: Homo sapiens, COR-L88;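 also: growth inhibition of COR-L88 cells, read out with a cell viability assay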
Description: SANGER: Inhibition of human COR-L88 cell growth in a cell viability assay.

CW-2 = type: functional, cell-based, Homo sapiens; conditions: Homo sapiens, CW-2;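 also: growth inhibition of CW-2 cells, read out by a cell viability assay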
Description: SANGER: Inhibition of human CW-2 cell growth in a cell viability assay.

DJM-1 = type: functional, cell-based, Homo sapiens; conditions: Homo sapiens, DJM-1;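 also: growth inhibition of human DJM-1 cells, read out by a cell viability assay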
Description: SANGER: Inhibition of human DJM-1 cell growth in a cell viability assay.

EKVX = type: functional, cell-based, Homo sapiens; conditions: Homo sapiens, EKVX;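 also: growth inhibition of human EKVX cells, read out with a cell viability assay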
Description: SANGER: Inhibition of human EKVX cell growth in a cell viability assay.

ES5 = type: functional, cell-based, Homo sapiens; conditions: Homo sapiens, ES5;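 also: growth inhibition of human ES5 cells, read out by a cell viability assay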
Description: SANGER: Inhibition of human ES5 cell growth in a cell viability assay.

ES8 = type: functional, cell-based, Homo sapiens; conditions: Homo sapiens, ES8;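 also: growth inhibition of human ES8 cells, read out with a cell viability assay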
Description: SANGER: Inhibition of human ES8 cell growth in a cell viability assay.

EW-16 = type: functional, cell-based, Homo sapiens; conditions: Homo sapiens, EW-16;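 also: growth inhibition of human EW-16 cells, read out as cell viability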
Description: SANGER: Inhibition of human EW-16 cell growth in a cell viability assay.

GI-1 = type: functional, cell-based, Homo sapiens; conditions: Homo sapiens, GI-1;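 also: growth inhibition of human GI-1 cells, measured with a cell viability readout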
Description: SANGER: Inhibition of human GI-1 cell growth in a cell viability assay.

HCC1187 = type: functional, cell-based, Homo sapiens; conditions: Homo sapiens, HCC1187;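 also: growth inhibition of HCC1187 cells, read out with a cell viability assay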
Description: SANGER: Inhibition of human HCC1187 cell growth in a cell viability assay.

HCE-4 = type: functional, cell-based, Homo sapiens; conditions: Homo sapiens, HCE-4;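 also: cell viability assay measuring inhibition of growth in the human HCE-4 cell line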
Description: SANGER: Inhibition of human HCE-4 cell growth in a cell viability assay.

HD-MY-Z = type: functional, cell-based, Homo sapiens; conditions: Homo sapiens, HD-MY-Z;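 also: growth inhibition of HD-MY-Z cells, read out with a cell viability assay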
Description: SANGER: Inhibition of human HD-MY-Z cell growth in a cell viability assay.

HL-60 = type: functional, cell-based, Homo sapiens; conditions: Homo sapiens, HL-60;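 also: growth inhibition of human HL-60 cells, read out with a cell viability assay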
Description: SANGER: Inhibition of human HL-60 cell growth in a cell viability assay.

IST-MES1 = type: functional, cell-based, Homo sapiens; conditions: Homo sapiens, IST-MES1;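 also: growth inhibition of IST-MES1 cells, measured with a cell viability assay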
Description: SANGER: Inhibition of human IST-MES1 cell growth in a cell viability assay.

K562 = type: functional, cell-based, Homo sapiens; conditions: Homo sapiens, K562
Description: SANGER: Inhibition of human K-562 cell growth in a cell viability assay.

KE-37 = type: functional, cell-based, Homo sapiens; conditions: Homo sapiens, KE-37;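 also: growth inhibition of KE-37 cells, read out with a cell viability assay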
Description: SANGER: Inhibition of human KE-37 cell growth in a cell viability assay.

KG-1 = type: functional, cell-based, Homo sapiens; conditions: Homo sapiens, KG-1;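 also: growth inhibition of KG-1 cells, read out by a cell viability assay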
Description: SANGER: Inhibition of human KG-1 cell growth in a cell viability assay.

KINGS-1 = type: functional, cell-based, Homo sapiens; conditions: Homo sapiens, KINGS-1;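 also: cell viability assay measuring suppression of KINGS-1 cell growth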
Description: SANGER: Inhibition of human KINGS-1 cell growth in a cell viability assay.

KM-H2 = type: functional, cell-based, Homo sapiens; conditions: Homo sapiens, KM-H2;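 also: growth inhibition of KM-H2 cells, read out by a cell viability assay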
Description: SANGER: Inhibition of human KM-H2 cell growth in a cell viability assay.

KS-1 = type: functional, cell-based, Homo sapiens; conditions: Homo sapiens, KS-1;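 also: growth inhibition of KS-1 cells, read out with a cell viability assay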
Description: SANGER: Inhibition of human KS-1 cell growth in a cell viability assay.

KURAMOCHI = type: functional, cell-based, Homo sapiens; conditions: Homo sapiens, KURAMOCHI;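 also: growth inhibition of KURAMOCHI cells, read out with a cell viability assay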
Description: SANGER: Inhibition of human KURAMOCHI cell growth in a cell viability assay.

LB2241-RCC = type: functional, cell-based, Homo sapiens; conditions: Homo sapiens, LB2241-RCC;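 also: cell viability assay measuring how strongly the cultured human renal carcinoma line is prevented from growing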
Description: SANGER: Inhibition of human LB2241-RCC cell growth in a cell viability assay.

LB373-MEL-D = type: functional, cell-based, Homo sapiens; conditions: Homo sapiens, LB373-MEL-D;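 also: growth inhibition of the cell line, read out in a cell viability assay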
Description: SANGER: Inhibition of human LB373-MEL-D cell growth in a cell viability assay.

LU-134-A = type: functional, cell-based, Homo sapiens; conditions: Homo sapiens, LU-134-A
Description: SANGER: Inhibition of human LU-134-A cell growth in a cell viability assay.

LU-139 = type: functional, cell-based, Homo sapiens; conditions: Homo sapiens, LU-139
Description: SANGER: Inhibition of human LU-139 cell growth in a cell viability assay.

MC116 = type: functional, cell-based, Homo sapiens; conditions: Homo sapiens, MC116;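 also: growth inhibition of MC116 cells, read out with a cell viability assay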
Description: SANGER: Inhibition of human MC116 cell growth in a cell viability assay.

MEG-01 = type: functional, cell-based, Homo sapiens; conditions: Homo sapiens, MEG-01;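 also: growth inhibition of MEG-01 cells, read out by a cell viability assay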
Description: SANGER: Inhibition of human MEG-01 cell growth in a cell viability assay.

MLMA = type: functional, cell-based, Homo sapiens; conditions: Homo sapiens, MLMA;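 also: growth inhibition of MLMA cells (human), determined through a cell viability readout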
Description: SANGER: Inhibition of human MLMA cell growth in a cell viability assay.

MMAC-SF = type: functional, cell-based, Homo sapiens; conditions: Homo sapiens, MMAC-SF;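 also: growth inhibition of human MMAC-SF cells, read out with a cell viability assay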
Description: SANGER: Inhibition of human MMAC-SF cell growth in a cell viability assay.

MOLT-4 = type: functional, cell-based, Homo sapiens; conditions: Homo sapiens, MOLT-4;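 also: growth inhibition of MOLT-4 cells, determined with a cell viability readout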
Description: SANGER: Inhibition of human MOLT-4 cell growth in a cell viability assay.

Mo = type: functional, cell-based, Homo sapiens; conditions: Homo sapiens, Mo
Description: SANGER: Inhibition of human Mo-T cell growth in a cell viability assay.

NCI-H1155 = type: functional, cell-based, Homo sapiens; conditions: Homo sapiens, NCI-H1155;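 also: cell growth inhibition measured by a viability assay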
Description: SANGER: Inhibition of human NCI-H1155 cell growth in a cell viability assay.

NCI-H1770 = type: functional, cell-based, Homo sapiens; conditions: Homo sapiens, NCI-H1770;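 also: growth inhibition of NCI-H1770 cells determined with a viability readout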
Description: SANGER: Inhibition of human NCI-H1770 cell growth in a cell viability assay.

NCI-H1838 = type: functional, cell-based, Homo sapiens; conditions: Homo sapiens, NCI-H1838;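 also: growth inhibition of NCI-H1838 cells, determined with a cell viability readout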
Description: SANGER: Inhibition of human NCI-H1838 cell growth in a cell viability assay.

NCI-H209 = type: functional, cell-based, Homo sapiens; conditions: Homo sapiens, NCI-H209;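 also: growth inhibition of human NCI-H209 cells, measured by a cell viability assay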
Description: SANGER: Inhibition of human NCI-H209 cell growth in a cell viability assay.

NCI-H23 = type: functional, cell-based, Homo sapiens; conditions: Homo sapiens, NCI-H23;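 also: cell viability assay measuring growth inhibition of NCI-H23 cells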
Description: SANGER: Inhibition of human NCI-H23 cell growth in a cell viability assay.

NOS-1 = type: functional, cell-based, Homo sapiens; conditions: Homo sapiens, NOS-1;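 also: growth inhibition of the human NOS-1 cell line, read out with a cell viability assay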
Description: SANGER: Inhibition of human NOS-1 cell growth in a cell viability assay.

NTERA-2-cl-D1 = type: functional, cell-based, Homo sapiens; conditions: Homo sapiens, NTERA-2-cl-D1;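 also: inhibition of cell growth, measured with a cell viability assay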
Description: SANGER: Inhibition of human NTERA-S-cl-D1 cell growth in a cell viability assay.

OS-RC-2 = type: functional, cell-based, Homo sapiens; conditions: Homo sapiens, OS-RC-2;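 also: growth inhibition of human OS-RC-2 cells, measured by a cell viability assay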
Description: SANGER: Inhibition of human OS-RC-2 cell growth in a cell viability assay.

PSN1 = type: functional, cell-based, Homo sapiens; conditions: Homo sapiens, PSN1;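 also: suppression of growth of human PSN1 cells, read out by a cell viability assay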
Description: SANGER: Inhibition of human PSN1 cell growth in a cell viability assay.

RCC10RGB = type: functional, cell-based, Homo sapiens; conditions: Homo sapiens, RCC10RGB;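 also: growth inhibition of human RCC10RGB cells, read out by a cell viability assay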
Description: SANGER: Inhibition of human RCC10RGB cell growth in a cell viability assay.

RKO = type: functional, cell-based, Homo sapiens; conditions: Homo sapiens, RKO;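 also: growth inhibition of human RKO cells, read out with a cell viability assay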
Description: SANGER: Inhibition of human RKO cell growth in a cell viability assay.

SF-539 = type: functional, cell-based, Homo sapiens; conditions: Homo sapiens, SF-539;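 also: Read-out is a cell viability assay, with IC50 reflecting inhibition of cell growth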
Description: SANGER: Inhibition of human SF539 cell growth in a cell viability assay.

SHP77 = type: functional, cell-based, Homo sapiens, SHP-77; conditions: Homo sapiens, SHP77;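 also: growth inhibition of human SHP-77 cells measured by a cell viability assay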
Description: SANGER: Inhibition of human SHP-77 cell growth in a cell viability assay.

SW 954 = type: functional, cell-based, Homo sapiens; conditions: Homo sapiens, SW 954;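 also: growth inhibition of SW954 human cancer cells, read out as cell viability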
Description: SANGER: Inhibition of human SW954 cell growth in a cell viability assay.

A388 = type: functional, cell-based, Homo sapiens; conditions: Homo sapiens, A388;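 also: growth inhibition of human A388 cells, read out with a cell viability assay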
Description: SANGER: Inhibition of human A388 cell growth in a cell viability assay.

A4-Fuk = type: functional, cell-based, Homo sapiens; conditions: Homo sapiens, A4-Fuk;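 also: growth inhibition of A4-Fuk cells, read out by a cell viability assay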
Description: SANGER: Inhibition of human A4-Fuk cell growth in a cell viability assay.

TK-10 = type: functional, cell-based, Homo sapiens; conditions: Homo sapiens, TK-10;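 also: growth inhibition of TK-10 cells, read out in a cell viability assay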
Description: SANGER: Inhibition of human TK10 cell growth in a cell viability assay.

no-10 = type: functional, cell-based, Homo sapiens; conditions: Homo sapiens;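 also: growth inhibition of no-10 cells, read out with a cell viability assay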
Description: SANGER: Inhibition of human no-10 cell growth in a cell viability assay.

COLO-320-HSR = type: functional, cell-based, Homo sapiens; conditions: Homo sapiens, COLO-320-HSR;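 also: growth inhibition of COLO-320-HSR cells, determined with a cell viability assay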
Description: SANGER: Inhibition of human COLO-320-HSR cell growth in a cell viability assay.

O=C(O)c1ccc(-c2c[nH]c3ncc(-c4ccccc4)cc23)cc1C1CCCC1 [GSK-650394]
IC50 (COR-L88): > 16 µM | IC50 (CW-2): > 16 µM | IC50 (DJM-1): > 16 µM | IC50 (EKVX): > 16 µM | IC50 (ES5): > 16 µM | IC50 (ES8): 7.13 µM | IC50 (EW-16): 5.75 µM | IC50 (GI-1): > 16 µM | IC50 (HCC1187): > 16 µM | IC50 (HCE-4): 7.59 µM | IC50 (HD-MY-Z): > 16 µM | IC50 (HL-60): > 16 µM | IC50 (IST-MES1): > 16 µM | IC50 (K562): > 16 µM | IC50 (KE-37): > 16 µM | IC50 (KG-1): > 16 µM | IC50 (KINGS-1): > 16 µM | IC50 (KM-H2): > 16 µM | IC50 (KS-1): > 16 µM | IC50 (KURAMOCHI): > 16 µM | IC50 (LB2241-RCC): > 16 µM | IC50 (LB373-MEL-D): > 16 µM | IC50 (LU-134-A): 6.55 µM | IC50 (LU-139): > 16 µM | IC50 (MC116): > 16 µM | IC50 (MEG-01): 5.26 µM | IC50 (MLMA): > 16 µM | IC50 (MMAC-SF): > 16 µM | IC50 (MOLT-4): > 16 µM | IC50 (Mo): > 16 µM | IC50 (NCI-H1155): > 16 µM | IC50 (NCI-H1770): 10 µM | IC50 (NCI-H1838): > 16 µM | IC50 (NCI-H209): > 16 µM | IC50 (NCI-H23): > 16 µM | IC50 (NOS-1): > 16 µM | IC50 (NTERA-2-cl-D1): 3.55 µM | IC50 (OS-RC-2): > 16 µM | IC50 (PSN1): 2.19 µM | IC50 (RCC10RGB): > 16 µM | IC50 (RKO): 1.58 µM | IC50 (SF-539): > 16 µM | IC50 (SHP77): > 16 µM | IC50 (SW 954): 4.46 µM | IC50 (A388): 7.6 µM | IC50 (A4-Fuk): 14.9 µM | IC50 (TK-10): > 16 µM | IC50 (no-10): > 16 µM | IC50 (COLO-320-HSR): > 16 µM
